A short description of series [1]: Pharmacokinetic study by intravenous administration to a rat. Type of series: in vivo. To be noted: plasma, 1 mg/kg; intravenous single dose, 1 mg/mL solution at 1 mL/kg, Wistar rat, active form; read-out: Total body clearance CLtot (converted). The procedure:
Pharmacokinetic Study by Intravenous Administration to a Rat
After the compounds of the present invention wherein R11 to R141 are a hydroxyl group, which were active forms, were weighed by a scale, they were adjusted by dimethylsulfoxide to become 10 mg/mL. Polyethylene glycol 400 and distilled water were added thereto to prepare 1 mg/mL of an administration solution. 1 mg/mL of the administration solution was intravenously administered as a single dose to a Wistar rat in an amount of 1 mL/kg. 1, 5, 10, 30, 60 and 180 minutes later, the drug concentration in the blood plasma obtained by blood drawing from its cervical vein over time under anesthesia was determined with LC/MS. From the obtained results, the area under the plasma concentration time curve from zero to time infinity (AUCinf (iv)) was calculated in accordance with the trapezoidal method of pharmacokinetic analysis. The total body clearance (CLtot, [L/hr/kg]) was calculated as an index of drug disappearance in the blood plasma from a dose [mg/kg] and AUC [μg×hr/mL] in accordance with the formula: CLtot=Dose÷AUCinf(iv).

In series [2] the target is T1, VCAM-1/α4β1 integrin binding (Homo sapiens, UniProt P05556+P13612).
T1 construct: Jurkat (ATCC TIB-152), known to express integrin α4β1; endogenous in cells; host or cells: Jurkat (ATCC TIB-152)
T1 sequence (P13612 34-1032): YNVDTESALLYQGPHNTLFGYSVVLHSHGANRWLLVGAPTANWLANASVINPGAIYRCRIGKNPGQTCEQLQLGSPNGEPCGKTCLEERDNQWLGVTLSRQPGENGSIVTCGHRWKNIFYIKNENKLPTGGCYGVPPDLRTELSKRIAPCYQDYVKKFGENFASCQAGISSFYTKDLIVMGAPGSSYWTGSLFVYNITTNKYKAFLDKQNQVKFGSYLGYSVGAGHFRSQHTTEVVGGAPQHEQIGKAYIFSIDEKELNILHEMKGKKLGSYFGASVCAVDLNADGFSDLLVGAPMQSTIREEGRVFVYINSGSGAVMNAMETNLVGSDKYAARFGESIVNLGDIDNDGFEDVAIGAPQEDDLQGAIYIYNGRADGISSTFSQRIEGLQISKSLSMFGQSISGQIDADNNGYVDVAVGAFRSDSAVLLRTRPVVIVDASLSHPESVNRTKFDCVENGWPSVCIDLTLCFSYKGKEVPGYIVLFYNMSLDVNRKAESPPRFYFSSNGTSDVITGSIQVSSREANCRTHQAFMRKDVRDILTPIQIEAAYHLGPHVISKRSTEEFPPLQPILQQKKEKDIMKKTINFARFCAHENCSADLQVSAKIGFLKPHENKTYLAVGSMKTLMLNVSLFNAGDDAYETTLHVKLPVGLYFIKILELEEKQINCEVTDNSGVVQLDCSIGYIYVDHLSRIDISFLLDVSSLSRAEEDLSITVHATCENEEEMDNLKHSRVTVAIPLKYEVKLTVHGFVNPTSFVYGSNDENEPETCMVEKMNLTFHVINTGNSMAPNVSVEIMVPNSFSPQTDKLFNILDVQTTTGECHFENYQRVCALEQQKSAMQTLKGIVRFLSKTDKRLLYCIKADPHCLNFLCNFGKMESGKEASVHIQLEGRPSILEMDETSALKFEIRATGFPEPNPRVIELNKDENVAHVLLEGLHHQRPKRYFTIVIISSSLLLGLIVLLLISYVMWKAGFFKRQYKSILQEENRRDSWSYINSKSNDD
T1 sequence (P05556 21-798): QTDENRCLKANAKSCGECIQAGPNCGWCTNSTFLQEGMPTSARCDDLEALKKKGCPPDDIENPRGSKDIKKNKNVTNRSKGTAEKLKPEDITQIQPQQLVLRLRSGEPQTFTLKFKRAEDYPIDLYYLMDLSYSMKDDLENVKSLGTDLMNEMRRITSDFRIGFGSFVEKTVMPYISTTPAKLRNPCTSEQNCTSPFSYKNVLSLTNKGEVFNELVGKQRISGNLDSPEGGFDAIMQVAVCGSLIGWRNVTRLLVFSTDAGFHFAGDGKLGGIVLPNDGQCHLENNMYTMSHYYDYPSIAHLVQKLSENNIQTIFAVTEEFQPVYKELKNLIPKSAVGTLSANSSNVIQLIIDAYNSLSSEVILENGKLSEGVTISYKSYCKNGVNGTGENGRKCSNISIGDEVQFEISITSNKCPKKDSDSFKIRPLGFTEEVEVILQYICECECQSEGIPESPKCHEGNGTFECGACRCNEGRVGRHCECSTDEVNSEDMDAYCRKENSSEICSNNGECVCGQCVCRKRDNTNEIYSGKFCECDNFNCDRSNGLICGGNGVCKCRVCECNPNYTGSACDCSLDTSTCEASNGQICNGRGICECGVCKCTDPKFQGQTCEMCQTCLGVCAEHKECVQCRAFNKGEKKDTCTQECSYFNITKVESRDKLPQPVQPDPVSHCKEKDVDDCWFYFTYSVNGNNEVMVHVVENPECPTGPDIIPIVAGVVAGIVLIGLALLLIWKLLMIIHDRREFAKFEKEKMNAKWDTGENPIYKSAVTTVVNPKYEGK
Description: Assay of antagonistic activity to VCAM-1/α4β1 integrin binding under the existence of blood serum (Jurkat cell adhesion to VCAM-1/Fc). Type of series: cell-based. To be noted: Jurkat cells, recombinant human VCAM-1/Fc, 50% human blood serum. The procedure:
Assay of Antagonistic Activity to VCAM-1/α4β1 Integrin Binding Under the Existence of Blood Serum
The capacity of a test substance antagonistic to the binding of cell strain of human T cells, Jurkat (ATCC TIB-152), known to express integrin α4β1, to VCAM-1 was determined.
Fifty μl/well of a solution (500 ng/ml) of recombinant human VCAM-1/Fc (R & D systems) diluted with buffer A (0.1 M NaHCO3, pH 9.6) was added to a 96-well microtiter plate (Nunc Maxisorp). After the incubation at 4° C. overnight and washing once with PBS, a buffer (buffer B) obtained by diluting Block Ace (Snow Brand Milk Products Co., Ltd.) with PBS to ½ concentration was added in an amount of 150 μl/well. After the incubation at room temperature for 2 hours, buffer B was removed and the plate was washed with PBS once.
Jurkat cells were washed with Dulbecco modified Eagle medium (SIGMA, hereinafter referred to as “DMEM”) once. Then, the cells were again suspended in a binding buffer (DMEM containing 20 mM HEPES, 0.1% BSA, 2 mM MnCl2 and 50% human blood serum (Sigma)) to become 1×10^6 cells/mL.
Sixty μl of a test substance of various concentrations obtained by the dilution with the binding buffer was added to a round-bottom, 96-well plate (IWAKI). Immediately thereafter, 60 μl of the Jurkat cells (1×10^6 cells/ml) were added thereto and shaken on a plate shaker (IKA-Labortechnik, IKA-SCHUTTLER MTS-4) at 1000 rpm for 10 seconds. In 120 μL of the cell suspension to which the test substance was added, each 100 μL thereof was transferred on the VCAM-1/Fc-coated plate and incubated in dark place at room temperature for 60 minutes. After the shaking on the plate shaker at 1000 rpm for 30 seconds, the solution was immediately removed. Then, the unbound cells were removed by washing them with PBS once. A buffer C (PBS containing 0.82% Triton X-100) was added to the plate in an amount of 70 μL/well. After the shaking on the plate shaker at 1000 rpm for 5 minutes, the bound Jurkat cells were lysed. After centrifuging the cells on a plate centrifuge (SIGMA 4-15C) at room temperature at 2500 rpm for 5 minutes, 50 μL of supernatant thereof was transferred to a 96-well microtiter plate (Nunc Maxisorp). Each 50 μL of Substrate Buffer (Promega, CytoTox 96 Non-Radioactive Cytotoxicity Assay) was added thereto, shaken on a plate shaker at 1000 rpm for 10 seconds and reacted in dark place at room temperature for 30 minutes. Then, each 50 μL of Stop Solution (Promega, CytoTox 96 Non-Radioactive Cytotoxicity Assay) was added thereto and shaken on a plate shaker at 1000 rpm for 10 seconds. […] The absorbance thus obtained detects an activity of lactate dehydrogenase (LDH) dissolved in the supernatant of each well. Namely, the absorbance is proportional to the number of remaining Jurkat cells on the plate via the binding to VCAM-1. The test was conducted in duplicate and the binding rate of each test substance in various concentrations was determined while the absorbance of the test substance-free well was determined to be 100% and the absorbance of the Jurkat-cell-free well was determined to be 0%. The concentration for the 50% inhibition of binding, IC50, was calculated.

The subject of series [3] is lymphocytes in the peripheral blood. Kind of series: Activity to elevate the number of lymphocytes in the peripheral blood in a rat. It counts as in vivo, male Wistar rat. To be noted: oral, 30 mg/kg, 12 hours later, criterion 150% or more of vehicle group. The procedure: Activity to Elevate the Number of Lymphocytes in the Peripheral Blood in a Rat
The activity of the compounds of the present invention to elevate the number of lymphocytes in the rat was examined.
A dosing solution was prepared by dissolving the compounds of the present invention to dimethylsulfoxide, adding the mixed solution of polyethylene glycol 400: propylene glycol=1:1 and turning it upside and down repeatedly. The final concentration of DMSO was adjusted to become 2.5%.
The dosing solution of a test substance (3 mg/kg, 10 mg/kg or 30 mg/kg) was orally administered to a male Wistar rat (6 to 8 weeks age) in an amount of 4 mL/kg. After the settled time points after the administration, the blood was drawn from its abdominal large vein under anesthesia and stirred in a EDTA-2K coated container for blood collection. Then, the number of lymphocytes in the peripheral blood was determined by an automated comprehensive hematology analyzer (SF-3000, Sysmex). The test was executed in n=5, and the ratio (%) of the number of lymphocytes in the peripheral blood in a test-substance-administered group to that in a vehicle-treated group (a control group) was calculated while the average value of the number of lymphocytes in the peripheral blood in a control group was determined to be 100%.

The clearance is a measure of how efficiently the substance is removed, as volume per time. On to `Cn1c(=O)n(-c2ccc(C[C@H](NC(=O)c3c(Cl)cccc3Cl)C(=O)O)cc2)c(=O)c2ccc(N3CCCC3)cc21.O=C(O)C(F)(F)F` [Example 40, N-(2,6-dichlorobenzoyl)-4-[1-methyl-7-(pyrrolidine-1-yl)-2,4-quinazoline-dione-3-yl]-L-phenylalanine trifluoroacetate], for which, in series [1], the clearance is 3.17 mL/min/kg.
Broadly, the IC50 is the concentration that gives 50% inhibition. Consider `CNCc1ccc2c(c1)c(=O)n(-c1ccc(C[C@H](NC(=O)c3c(Cl)cccc3Cl)C(=O)O)cc1)c(=O)n2C` [Example 99], for which the clearance in series [1] was 3.83 mL/min/kg. Moreover, the IC50 in series [2] is 11.2 nM.
Taken in the same sequence, the figures for `CCNCc1ccc2c(c1)c(=O)n(-c1ccc(C[C@H](NC(=O)c3c(Cl)cccc3Cl)C(=O)O)cc1)c(=O)n2C` [Example 54] were 4.5 mL/min/kg and 14.5 nM.
Taken in the same sequence, the figures for `CN(C)Cc1ccc2c(=O)n(-c3ccc(C[C@H](NC(=O)c4c(Cl)cccc4Cl)C(=O)O)cc3)c(=O)n(C)c2c1.O=C(O)C(F)(F)F` [Example 34, N-(2,6-dichlorobenzoyl)-4-[7-[(dimethylamino)methyl]-1-methyl-2,4-quinazoline-dione-3-yl]-L-phenylalanine Trifluoroacetate] were 5.17 mL/min/kg and 10.5 nM.
`CSc1ccc2c(c1)c(=O)n(-c1ccc(C[C@H](NC(=O)c3c(Cl)cccc3Cl)C(=O)O)cc1)c(=O)n2C` [Example 37, N-(2,6-dichlorobenzoyl)-4-[1-methyl-6-(methylthio)-2,4-quinazoline-dione-3-yl]-L-phenylalanine]: the clearance in series [1] is 5.5 mL/min/kg.
The same measure, in the same setting: the figure for `Cn1c(=O)n(-c2ccc(C[C@H](NC(=O)c3c(Cl)cccc3Cl)C(=O)O)cc2)c(=O)c2cc(-n3ccnc3N)ccc21` [Example 59] is 5.33 mL/min/kg.
`CC(C)OC(=O)[C@H](Cc1ccc(-n2c(=O)c3cc(CO)ccc3n(C)c2=O)cc1)NC(=O)c1c(Cl)cccc1Cl` [Example 234, N-(2,6-dichlorobenzoyl)-4-[6-(hydroxymethyl)-1-methyl-2,4-dioxo-1,2,3,4-tetrahydroquinazoline-3-(2H)-yl]-L-phenylalanine isopropylester]: in series [3], the “Elevation of lymphocytes in the peripheral blood, pass/failure” value was “◯ (pass (criterion measure or more))”.

Values taken from patent publication US7345049B2, “Phenylalanine derivatives” (Ajinomoto Co., Inc., priority 2003, dated 2008).
